This note sets out measurements from ChEMBL document CHEMBL1201862, “PubChem BioAssay data set” (2004).

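Results reflect a 48-hour exposure of cells in 96-well plates to compound at five concentrations. GI50 = concentration required for 50% inhibition of growth.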 The source made the active and inactive calls. No stated cut-off is given here; in the data, active = GI50 up to about 1.1 µM and inactive = higher.

Test systems include UO-31; RPMI-8226; SK-MEL-5; Malme-3M; SK-MEL-28; CAKI-1; SR; RXF 393; SN12C; HCC 2998; 786-0; DMS-114; NCI-H522; SK-OV-3; NCI-H23; HOP-92; SF-539; MCF7; BT-549; NCI/ADR-RES.
What all share (assay): DTP human tumour cell line panel, 48 h

With `O=C1Nc2ccc(Cl)c(I)c2C1=O`, the GI50 is 17.7 µM (inactive) in the experiment with UO-31; > 10 µM (inactive) in the experiment on RPMI-8226; 19.2 µM (inactive) in the experiment on SK-MEL-5; 20.2 µM (inactive) in the experiment with Malme-3M; 17.8 µM (inactive) in the experiment with SK-MEL-28; 21.6 µM (inactive) in the experiment on CAKI-1. Further, the GI50 in the experiment on SR was 22 µM (inactive); with RXF 393, 16.3 µM (inactive); in the experiment with SN12C, 17.2 µM (inactive); with HCC 2998 it was 14.6 µM (inactive); in the experiment with 786-0, 19.7 µM (inactive); in the experiment with DMS-114, 17.5 µM (inactive). The GI50 in the experiment on NCI-H522 is 17.2 µM (inactive); with SK-OV-3 it was 17.9 µM (inactive); in the experiment with NCI-H23, 18.9 µM (inactive).

As to `O=C(NCc1ccccc1)c1cc2cc(O)c(O)cc2cn1`, the GI50 is 39.1 µM (inactive) with HOP-92; 18.1 µM (inactive) in the experiment on UO-31; 24.6 µM (inactive) in the experiment on RPMI-8226; 22.8 µM (inactive) in the experiment with SK-MEL-5; 34.6 µM (inactive) in the experiment on Malme-3M; 35.7 µM (inactive) with SK-MEL-28. Also, the GI50 was 35.6 µM (inactive) in the experiment on CAKI-1; 13.8 µM (inactive) in the experiment with SR; 29 µM (inactive) in the experiment with SF-539; 21 µM (inactive) in the experiment with RXF 393; 31.2 µM (inactive) in the experiment on SN12C; 32.7 µM (inactive) in the experiment with HCC 2998. Further, the GI50 is 22.9 µM (inactive) in the experiment on 786-0; 4.48 µM (inactive) with DMS-114; 4.69 µM (inactive) in the experiment with NCI-H522; 40.8 µM (inactive) in the experiment on SK-OV-3; 14 µM (inactive) in the experiment with NCI-H23.

On to `ClC(Cl)=C1C(=C(Cl)Cl)C(Cl)(Cl)C1(Cl)Cl`, for which the GI50 is 1.24 µM (inactive) in the experiment on HOP-92; 3.05 µM (inactive) with UO-31; 0.558 µM (active) in the experiment on RPMI-8226; 2.82 µM (inactive) in the experiment with SK-MEL-5; 4.47 µM (inactive) with MCF7; 2.42 µM (inactive) with Malme-3M. In addition, the GI50 in the experiment with SK-MEL-28 was 1.44 µM (inactive); with CAKI-1, 2.89 µM (inactive); with SR, 0.214 µM (active); with SF-539, 2.34 µM (inactive); in the experiment on RXF 393, 1.45 µM (inactive); in the experiment on HCC 2998, 4.78 µM (inactive). For the same compound, the GI50 with 786-0 is 1.07 µM (active); in the experiment with DMS-114, 0.748 µM (active); in the experiment with NCI-H522 it was 0.0612 µM (active); with SK-OV-3, 14.9 µM (inactive); with NCI-H23, 1.04 µM (active); in the experiment on BT-549 it was 2.77 µM (inactive).

Take `O=S1(=O)c2cc(S(=O)(=O)n3ccnc3)ccc2NC2=NCCCN21`: the GI50 with HOP-92 was > 100 µM (inactive); in the experiment on UO-31 it was 31 µM (inactive); in the experiment on RPMI-8226, 50 µM (inactive); in the experiment on SK-MEL-5 it was 20.2 µM (inactive); in the experiment with Malme-3M, 37.9 µM (inactive); in the experiment with SK-MEL-28 it was > 100 µM (inactive). Besides, the GI50 was 38.8 µM (inactive) in the experiment with CAKI-1; 20.7 µM (inactive) with SR; 19.6 µM (inactive) in the experiment on SF-539; 33.3 µM (inactive) in the experiment on SN12C; 23 µM (inactive) in the experiment on HCC 2998; 32.2 µM (inactive) in the experiment on 786-0. The GI50 in the experiment on DMS-114 is 22.1 µM (inactive); with NCI-H522, 14.2 µM (inactive); in the experiment with SK-OV-3 it was 20.3 µM (inactive); in the experiment on NCI-H23, 30.7 µM (inactive).

For the compound `CCOC(=O)C1C2CCC(C2)C1(CCl)C(=O)OCC` (stereo not given), the GI50 with HOP-92 was 36.6 µM (inactive); in the experiment on UO-31 it was > 100 µM (inactive); with RPMI-8226, > 100 µM (inactive); in the experiment with SK-MEL-5, > 100 µM (inactive); in the experiment on Malme-3M, > 100 µM (inactive); with SK-MEL-28 it was > 100 µM (inactive). In addition, the GI50 in the experiment on CAKI-1, in the experiment on SR, with SN12C, in the experiment on HCC 2998, with 786-0 and with DMS-114 was > 100 µM (inactive) each time. In addition, the GI50 with SK-OV-3 and in the experiment on NCI-H23 was > 100 µM (inactive) in each case.

For `COc1ccc(/C=C(\Cl)c2ccc(OC)c(OC)c2)cc1OC`, the GI50 with HOP-92 was 56 µM (inactive); in the experiment on UO-31, > 100 µM (inactive); in the experiment with RPMI-8226 it was > 100 µM (inactive); in the experiment with SK-MEL-5 it was > 100 µM (inactive); in the experiment on MCF7, > 100 µM (inactive); in the experiment on Malme-3M, > 100 µM (inactive). Also, the GI50 is > 100 µM (inactive) in the experiment on SK-MEL-28; > 100 µM (inactive) in the experiment with CAKI-1; > 100 µM (inactive) with SR; > 100 µM (inactive) with SF-539; > 100 µM (inactive) in the experiment with NCI/ADR-RES; > 90.4 µM (inactive) with RXF 393. The GI50 is > 100 µM (inactive) in the experiment on SN12C; > 100 µM (inactive) in the experiment with HCC 2998; > 100 µM (inactive) in the experiment on 786-0; > 100 µM (inactive) in the experiment on DMS-114; 22.9 µM (inactive) in the experiment on NCI-H522; > 100 µM (inactive) in the experiment on SK-OV-3. Also, the GI50 with NCI-H23 and in the experiment on BT-549 was > 100 µM (inactive) in each case.

Consider `CCc1ccccc1NC(=O)CCc1nnc(S)[nH]1`, for which the GI50 in the experiment with HOP-92, in the experiment on UO-31, in the experiment with RPMI-8226, with SK-MEL-5, in the experiment on Malme-3M and in the experiment on SK-MEL-28 was > 100 µM (inactive) in each case. Also, the GI50 with CAKI-1, in the experiment with SR, with SF-539, in the experiment on RXF 393, in the experiment with SN12C and in the experiment with HCC 2998 was > 100 µM (inactive) throughout. The GI50 with 786-0, in the experiment with DMS-114, in the experiment on NCI-H522, in the experiment on SK-OV-3 and with NCI-H23 was > 100 µM (inactive) in each case.

In the case of `CS(=O)(=O)c1ccc(-c2cc(-c3ccc(S(C)(=O)=O)cc3)[n+](-c3cc(-c4ccc(S(C)(=O)=O)cc4)c([O-])c(-c4ccc(S(C)(=O)=O)cc4)c3)c(-c3ccc(S(C)(=O)=O)cc3)c2)cc1`, the GI50 in the experiment with UO-31, with RPMI-8226, in the experiment with SK-MEL-5, in the experiment with Malme-3M, in the experiment on SK-MEL-28 and in the experiment with CAKI-1 was > 100 µM (inactive) in each case. For the same compound, the GI50 in the experiment on SR, in the experiment on SF-539, in the experiment with RXF 393, in the experiment on SN12C, with HCC 2998 and in the experiment with 786-0 was > 100 µM (inactive) in each case. In addition, the GI50 in the experiment on DMS-114, with NCI-H522 and with NCI-H23 was > 100 µM (inactive) throughout.

With `CC1=C(C#N)C(=O)CC(c2ccc(Cl)cc2)N(C)N1` (stereo not given), the GI50 with HOP-92, in the experiment with RPMI-8226, in the experiment with SK-MEL-5, in the experiment with Malme-3M, in the experiment on SK-MEL-28 and in the experiment with CAKI-1 was > 100 µM (inactive) in each case. Moreover, the GI50 with SR, with RXF 393, in the experiment with SN12C, in the experiment with HCC 2998, with 786-0 and in the experiment with DMS-114 was > 100 µM (inactive) throughout. Besides, the GI50 with NCI-H522, in the experiment on SK-OV-3 and in the experiment on NCI-H23 was > 100 µM (inactive) throughout.

For the compound `FC(F)(F)c1ccccc1/C=N/C12CC3CC(CC(C3)C1)C2`, the GI50 is 0.908 µM (active) with UO-31; > 100 µM (inactive) in the experiment on RPMI-8226; 6.03 µM (inactive) in the experiment on SK-MEL-5; > 100 µM (inactive) in the experiment on Malme-3M; > 100 µM (inactive) in the experiment with SK-MEL-28; > 100 µM (inactive) with CAKI-1. Also, the GI50 in the experiment with SR, in the experiment with SF-539, in the experiment with RXF 393, in the experiment on SN12C, in the experiment with HCC 2998 and with 786-0 was > 100 µM (inactive) in each case. Besides, the GI50 in the experiment on DMS-114, in the experiment with SK-OV-3 and with NCI-H23 was > 100 µM (inactive) throughout.

In the case of `O=S(=O)(c1ccccc1)N1N=C2c3ccccc3CCC[C@H]2C1c1ccccc1` (stereo not given in full), the GI50 with HOP-92 was > 100 µM (inactive); with UO-31, > 60.8 µM (inactive); in the experiment with RPMI-8226 it was > 100 µM (inactive); in the experiment on SK-MEL-5, > 100 µM (inactive); in the experiment on Malme-3M, > 100 µM (inactive); in the experiment on SK-MEL-28, > 100 µM (inactive). Also, the GI50 with CAKI-1 is > 100 µM (inactive); with SR, 95.7 µM (inactive); in the experiment on SF-539, > 100 µM (inactive); in the experiment on RXF 393, > 100 µM (inactive); with SN12C, > 100 µM (inactive); in the experiment on HCC 2998, > 100 µM (inactive). The GI50 with 786-0 is > 100 µM (inactive); in the experiment with DMS-114, > 100 µM (inactive); in the experiment on NCI-H522, > 100 µM (inactive); in the experiment with SK-OV-3, 34.2 µM (inactive); in the experiment with NCI-H23, > 100 µM (inactive).

On to `N#CC(C#N)=C(C(C#N)C#N)C(C#N)C#N`, for which the GI50 in the experiment on HOP-92, in the experiment with UO-31, in the experiment with RPMI-8226, with SK-MEL-5, with Malme-3M and in the experiment with CAKI-1 was > 100 µM (inactive) in each case. In addition, the GI50 with SR, in the experiment with SF-539, in the experiment with RXF 393, in the experiment on SN12C, with HCC 2998 and with 786-0 was > 100 µM (inactive) each time. The GI50 in the experiment with DMS-114, in the experiment on NCI-H522, in the experiment on SK-OV-3 and in the experiment with NCI-H23 was > 100 µM (inactive) in each case.

In general, GI50 refers to the concentration at which growth is held to half of that of the control.
